# Test results published in ChEMBL document CHEMBL3045393, “Aryldiones incorporating a [1,4,5]oxadiazepane ring. Part I: Discovery of the novel cereal herbicide pinoxaden” (Bioorg Med Chem, 2009).
# Test system: Lolium perenne
# Assay: Post-emergence herbicidal activity against Lolium perenne (perennial ryegrass) at 30 g a.i./ha measured after 21 days in presence of 1% Merge adjuvant
# Assay type: functional
# Conditions: not given
row,Structure (SMILES),Activity [%]
1,CCc1cc(C)cc(CC)c1-c1c(OC(=O)N(CC)CC)n2n(c1=O)CCOCC2,0
2,CCc1cc(C)cc(CC)c1-c1c(OS(=O)(=O)N(C)C)n2n(c1=O)CCOCC2,50
3,CCc1cc(C)cc(CC)c1-c1c(OC(=O)OC(C)C)n2n(c1=O)CCOCC2,100
4,CCc1cc(C)cc(CC)c1-c1c(OCOC(=O)C(C)(C)C)n2n(c1=O)CCOCC2,100
5,CCOc1c(-c2c(CC)cc(C)cc2CC)c(=O)n2n1CCOCC2,20

# Test system: Alopecurus myosuroides
# Assay: Post-emergence herbicidal activity against Alopecurus myosuroides at 125 g a.i./ha measured after 21 days in presence of 0.2% X-77 adjuvant
# Assay type: functional
# Conditions: not given
row,Structure (SMILES),Activity [%]
1,CCc1cc(C)cc(CC)c1C1C(=O)N2CCCCN2C1=O,90
2,CCc1cc(CC)c(C2C(=O)N3CCCCN3C2=O)c(CC)c1,90

# Test system: Hordeum vulgare
# Assay: Phytotoxicity against Hordeum vulgare (barley) at 125 g a.i./ha applied post-emergence measured after 21 days in presence of 0.2% X-77 adjuvant
# Assay type: organism-based
# Conditions: in vivo, other, 504 h
row,Structure (SMILES),Activity [%]
1,CCc1cc(C)cc(CC)c1C1C(=O)N2CCCCN2C1=O,90
2,CCc1cc(CC)c(C2C(=O)N3CCCCN3C2=O)c(CC)c1,40

# Test system: Hordeum vulgare
# Assay: Phytotoxicity against Hordeum vulgare (barley) at 30 g a.i./ha applied post-emergence measured after 21 days in presence of 1% Merge adjuvant
# Assay type: organism-based
# Conditions: in vivo, other, 504 h
row,Structure (SMILES),Activity [%]
1,CCc1cc(C)cc(CC)c1-c1c(OC(=O)N(CC)CC)n2n(c1=O)CCOCC2,0
2,CCc1cc(C)cc(CC)c1-c1c(OS(=O)(=O)N(C)C)n2n(c1=O)CCOCC2,0
3,CCc1cc(C)cc(CC)c1-c1c(OC(=O)OC(C)C)n2n(c1=O)CCOCC2,0
4,CCc1cc(C)cc(CC)c1-c1c(OCOC(=O)C(C)(C)C)n2n(c1=O)CCOCC2,0
5,CCOc1c(-c2c(CC)cc(C)cc2CC)c(=O)n2n1CCOCC2,0

# Test system: Alopecurus myosuroides
# Assay: Post-emergence herbicidal activity against Alopecurus myosuroides at 30 g a.i./ha measured after 21 days in presence of 1% Merge adjuvant
# Assay type: functional
# Conditions: not given
row,Structure (SMILES),Activity [%]
1,CCc1cc(C)cc(CC)c1-c1c(OC(=O)N(CC)CC)n2n(c1=O)CCOCC2,0
2,CCc1cc(C)cc(CC)c1-c1c(OS(=O)(=O)N(C)C)n2n(c1=O)CCOCC2,0
3,CCc1cc(C)cc(CC)c1-c1c(OC(=O)OC(C)C)n2n(c1=O)CCOCC2,80
4,CCc1cc(C)cc(CC)c1-c1c(OCOC(=O)C(C)(C)C)n2n(c1=O)CCOCC2,60
5,CCOc1c(-c2c(CC)cc(C)cc2CC)c(=O)n2n1CCOCC2,0

# Test system: Avena fatua
# Assay: Post-emergence herbicidal activity against Avena fatua at 2000 g a.i./ha after 21 days
# Assay type: functional
# Conditions: not given
row,Structure (SMILES),Activity [%]
1,Cc1cc(C)c(-c2c(OC(=O)C(C)(C)C)n3n(c2=O)CCS(=O)(=O)CC3)c(C)c1,80
2,Cc1cc(C)c(-c2c(OC(=O)C(C)(C)C)n3n(c2=O)CCSCC3)c(C)c1,90
3,Cc1cc(C)c(-c2c(OC(=O)C(C)(C)C)n3n(c2=O)CCCCC3)c(C)c1,90
4,Cc1cc(C)c(C2C(=O)N3CCN(C)CCN3C2=O)c(C)c1,10
5,Cc1cc(C)c(C2C(=O)N3CC[S+]([O-])CCN3C2=O)c(C)c1,80
6,Cc1cc(C)c(C2C(=O)N3CCSCCN3C2=O)c(C)c1,90
7,Cc1cc(C)c(-c2c(OC(=O)C(C)(C)C)n3n(c2=O)CC[S+]([O-])CC3)c(C)c1 (stereo not given),80
8,Cc1cc(C)c(C2C(=O)N3CCS(=O)(=O)CCN3C2=O)c(C)c1,80

# Test system: Setaria faberi
# Assay: Post-emergence herbicidal activity against Setaria faberi (Giant Foxtail) at 500 g a.i./ha after 21 days
# Assay type: functional
# Conditions: not given
row,Structure (SMILES),Activity [%]
1,Cc1cc(C)c(-c2c(OC(=O)C(C)(C)C)n3n(c2=O)CCS(=O)(=O)CC3)c(C)c1,10
2,Cc1cc(C)c(-c2c(OC(=O)C(C)(C)C)n3n(c2=O)CCSCC3)c(C)c1,60
3,Cc1cc(C)c(-c2c(OC(=O)C(C)(C)C)n3n(c2=O)CCCCC3)c(C)c1,90
4,Cc1cc(C)c(C2C(=O)N3CCN(C)CCN3C2=O)c(C)c1,40
5,Cc1cc(C)c(C2C(=O)N3CC[S+]([O-])CCN3C2=O)c(C)c1,60
6,Cc1cc(C)c(C2C(=O)N3CCSCCN3C2=O)c(C)c1,90
7,Cc1cc(C)c(-c2c(OC(=O)C(C)(C)C)n3n(c2=O)CC[S+]([O-])CC3)c(C)c1 (stereo not given),40
8,Cc1cc(C)c(C2C(=O)N3CCS(=O)(=O)CCN3C2=O)c(C)c1,20

# Test system: Setaria faberi
# Assay: Post-emergence herbicidal activity against Setaria faberi (Giant Foxtail) at 125 g a.i./ha measured after 21 days in presence of 0.2% X-77 adjuvant
# Assay type: functional
# Conditions: not given
row,Structure (SMILES),Activity [%]
1,CCc1cc(C)cc(CC)c1C1C(=O)N2CCCCN2C1=O,80
2,CCc1cc(CC)c(C2C(=O)N3CCCCN3C2=O)c(CC)c1,50

# Test system: Lolium perenne
# Assay: Post-emergence herbicidal activity against Lolium perenne (perennial ryegrass) at 2000 g a.i./ha after 21 days
# Assay type: functional
# Conditions: not given
row,Structure (SMILES),Activity [%]
1,Cc1cc(C)c(-c2c(OC(=O)C(C)(C)C)n3n(c2=O)CCS(=O)(=O)CC3)c(C)c1,50
2,Cc1cc(C)c(-c2c(OC(=O)C(C)(C)C)n3n(c2=O)CCSCC3)c(C)c1,80
3,Cc1cc(C)c(-c2c(OC(=O)C(C)(C)C)n3n(c2=O)CCCCC3)c(C)c1,100
4,Cc1cc(C)c(C2C(=O)N3CCN(C)CCN3C2=O)c(C)c1,60
5,Cc1cc(C)c(C2C(=O)N3CC[S+]([O-])CCN3C2=O)c(C)c1,80
6,Cc1cc(C)c(C2C(=O)N3CCSCCN3C2=O)c(C)c1,90
7,Cc1cc(C)c(-c2c(OC(=O)C(C)(C)C)n3n(c2=O)CC[S+]([O-])CC3)c(C)c1 (stereo not given),50
8,Cc1cc(C)c(C2C(=O)N3CCS(=O)(=O)CCN3C2=O)c(C)c1,60

# Test system: Lolium perenne
# Assay: Post-emergence herbicidal activity against Lolium perenne (perennial ryegrass) at 500 g a.i./ha after 21 days
# Assay type: functional
# Conditions: not given
row,Structure (SMILES),Activity [%]
1,Cc1cc(C)c(-c2c(OC(=O)C(C)(C)C)n3n(c2=O)CCS(=O)(=O)CC3)c(C)c1,10
2,Cc1cc(C)c(-c2c(OC(=O)C(C)(C)C)n3n(c2=O)CCSCC3)c(C)c1,40
3,Cc1cc(C)c(-c2c(OC(=O)C(C)(C)C)n3n(c2=O)CCCCC3)c(C)c1,80
4,Cc1cc(C)c(C2C(=O)N3CCN(C)CCN3C2=O)c(C)c1,10
5,Cc1cc(C)c(C2C(=O)N3CC[S+]([O-])CCN3C2=O)c(C)c1,40
6,Cc1cc(C)c(C2C(=O)N3CCSCCN3C2=O)c(C)c1,50
7,Cc1cc(C)c(-c2c(OC(=O)C(C)(C)C)n3n(c2=O)CC[S+]([O-])CC3)c(C)c1 (stereo not given),20
8,Cc1cc(C)c(C2C(=O)N3CCS(=O)(=O)CCN3C2=O)c(C)c1,20

# Test system: Triticum aestivum
# Assay: Phytotoxicity against Triticum aestivum (wheat) at 125 g a.i./ha applied post-emergence measured after 21 days in presence of 0.2% X-77 adjuvant
# Assay type: organism-based
# Conditions: in vivo, other, 504 h
row,Structure (SMILES),Activity [%]
1,CCc1cc(C)cc(CC)c1C1C(=O)N2CCCCN2C1=O,80
2,CCc1cc(CC)c(C2C(=O)N3CCCCN3C2=O)c(CC)c1,40

# Test system: Avena fatua
# Assay: Post-emergence herbicidal activity against Avena fatua at 125 g a.i./ha measured after 21 days in presence of 0.2% X-77 adjuvant
# Assay type: functional
# Conditions: not given
row,Structure (SMILES),Activity [%]
1,CCc1cc(C)cc(CC)c1C1C(=O)N2CCCCN2C1=O,100
2,CCc1cc(CC)c(C2C(=O)N3CCCCN3C2=O)c(CC)c1,100

# Test system: Setaria faberi
# Assay: Post-emergence herbicidal activity against Setaria faberi (Giant Foxtail) at 30 g a.i./ha measured after 21 days in presence of 1% Merge adjuvant
# Assay type: functional
# Conditions: not given
row,Structure (SMILES),Activity [%]
1,CCc1cc(C)cc(CC)c1-c1c(OC(=O)N(CC)CC)n2n(c1=O)CCOCC2,0
2,CCc1cc(C)cc(CC)c1-c1c(OS(=O)(=O)N(C)C)n2n(c1=O)CCOCC2,20
3,CCc1cc(C)cc(CC)c1-c1c(OC(=O)OC(C)C)n2n(c1=O)CCOCC2,100
4,CCc1cc(C)cc(CC)c1-c1c(OCOC(=O)C(C)(C)C)n2n(c1=O)CCOCC2,90
5,CCOc1c(-c2c(CC)cc(C)cc2CC)c(=O)n2n1CCOCC2,0

# Test system: Avena fatua
# Assay: Post-emergence herbicidal activity against Avena fatua at 500 g a.i./ha after 21 days
# Assay type: functional
# Conditions: not given
row,Structure (SMILES),Activity [%]
1,Cc1cc(C)c(-c2c(OC(=O)C(C)(C)C)n3n(c2=O)CCS(=O)(=O)CC3)c(C)c1,20
2,Cc1cc(C)c(-c2c(OC(=O)C(C)(C)C)n3n(c2=O)CCSCC3)c(C)c1,50
3,Cc1cc(C)c(-c2c(OC(=O)C(C)(C)C)n3n(c2=O)CCCCC3)c(C)c1,60
4,Cc1cc(C)c(C2C(=O)N3CCN(C)CCN3C2=O)c(C)c1,0
5,Cc1cc(C)c(C2C(=O)N3CC[S+]([O-])CCN3C2=O)c(C)c1,40
6,Cc1cc(C)c(C2C(=O)N3CCSCCN3C2=O)c(C)c1,60
7,Cc1cc(C)c(-c2c(OC(=O)C(C)(C)C)n3n(c2=O)CC[S+]([O-])CC3)c(C)c1 (stereo not given),20
8,Cc1cc(C)c(C2C(=O)N3CCS(=O)(=O)CCN3C2=O)c(C)c1,60

# Test system: Triticum aestivum
# Assay: Phytotoxicity against Triticum aestivum (wheat) at 30 g a.i./ha applied post-emergence measured after 21 days in presence of 1% Merge adjuvant
# Assay type: organism-based
# Conditions: in vivo, other, 504 h
row,Structure (SMILES),Activity [%]
1,CCc1cc(C)cc(CC)c1-c1c(OC(=O)N(CC)CC)n2n(c1=O)CCOCC2,0
2,CCc1cc(C)cc(CC)c1-c1c(OS(=O)(=O)N(C)C)n2n(c1=O)CCOCC2,0
3,CCc1cc(C)cc(CC)c1-c1c(OC(=O)OC(C)C)n2n(c1=O)CCOCC2,0
4,CCc1cc(C)cc(CC)c1-c1c(OCOC(=O)C(C)(C)C)n2n(c1=O)CCOCC2,10
5,CCOc1c(-c2c(CC)cc(C)cc2CC)c(=O)n2n1CCOCC2,0

# Test system: Lolium perenne
# Assay: Post-emergence herbicidal activity against Lolium perenne (perennial ryegrass) at 125 g a.i./ha measured after 21 days in presence of 0.2% X-77 adjuvant
# Assay type: functional
# Conditions: not given
row,Structure (SMILES),Activity [%]
1,CCc1cc(C)cc(CC)c1C1C(=O)N2CCCCN2C1=O,90
2,CCc1cc(CC)c(C2C(=O)N3CCCCN3C2=O)c(CC)c1,60

# Test system: Setaria faberi
# Assay: Post-emergence herbicidal activity against Setaria faberi (Giant Foxtail) at 2000 g a.i./ha after 21 days
# Assay type: functional
# Conditions: not given
row,Structure (SMILES),Activity [%]
1,Cc1cc(C)c(-c2c(OC(=O)C(C)(C)C)n3n(c2=O)CCS(=O)(=O)CC3)c(C)c1,50
2,Cc1cc(C)c(-c2c(OC(=O)C(C)(C)C)n3n(c2=O)CCSCC3)c(C)c1,100
3,Cc1cc(C)c(-c2c(OC(=O)C(C)(C)C)n3n(c2=O)CCCCC3)c(C)c1,90
4,Cc1cc(C)c(C2C(=O)N3CCN(C)CCN3C2=O)c(C)c1,90
5,Cc1cc(C)c(C2C(=O)N3CC[S+]([O-])CCN3C2=O)c(C)c1,90
6,Cc1cc(C)c(C2C(=O)N3CCSCCN3C2=O)c(C)c1,100
7,Cc1cc(C)c(-c2c(OC(=O)C(C)(C)C)n3n(c2=O)CC[S+]([O-])CC3)c(C)c1 (stereo not given),80
8,Cc1cc(C)c(C2C(=O)N3CCS(=O)(=O)CCN3C2=O)c(C)c1,60

# Test system: Avena fatua
# Assay: Post-emergence herbicidal activity against Avena fatua at 30 g a.i./ha measured after 21 days in presence of 1% Merge adjuvant
# Assay type: functional
# Conditions: not given
row,Structure (SMILES),Activity [%]
1,CCc1cc(C)cc(CC)c1-c1c(OC(=O)N(CC)CC)n2n(c1=O)CCOCC2,0
2,CCc1cc(C)cc(CC)c1-c1c(OS(=O)(=O)N(C)C)n2n(c1=O)CCOCC2,10
3,CCc1cc(C)cc(CC)c1-c1c(OC(=O)OC(C)C)n2n(c1=O)CCOCC2,90
4,CCc1cc(C)cc(CC)c1-c1c(OCOC(=O)C(C)(C)C)n2n(c1=O)CCOCC2,100
5,CCOc1c(-c2c(CC)cc(C)cc2CC)c(=O)n2n1CCOCC2,0
